pIC50, pKd: −log10 of the molar value. Entries after “also recorded” stand apart in the source; their conditions may differ. Where no end group is shown, it is not given here.
Key:
hemichannels = conditions: cited from earlier work; for Hemichannel-only effect: ref not given
Text: Gap junction channels form junctional plaques that are composed of two docked hemichannels oligomerized from six Cx protein subunits. […] Stehberg and collaborators have used TAT-L2 for local injection in the amygdala in in vivo animal studies on fear memory (Stehberg et al., [2012]).

[1] = tested on: Cx43 hemichannels in astrocytes; conditions: hippocampal slices; ref Rouach et al., 2008, Supplementary Data Figure S5; cited from earlier work
Description: The inhibitory effect of Gap19 in situ was then tested by performing the Etd^+ uptake assay in acute hippocampal brain slices from GFAP-eGFP transgenic mice. […] This increase ... || Gap19 is a peptide that corresponds to a sequence on the cytoplasmic loop (CL) of Cx43. Its sequence is part of the L2 domain that is involved in interactions of the CL with the CT-tail of Cx43. […] This differential effect is most probably the consequence of distinct channel configurations of hemichannels as compared ...

Gap19 = Gap19 (UniProt P17302); conditions: cited from earlier work
Chain of Gap19 (P17302 whole entry, looked up): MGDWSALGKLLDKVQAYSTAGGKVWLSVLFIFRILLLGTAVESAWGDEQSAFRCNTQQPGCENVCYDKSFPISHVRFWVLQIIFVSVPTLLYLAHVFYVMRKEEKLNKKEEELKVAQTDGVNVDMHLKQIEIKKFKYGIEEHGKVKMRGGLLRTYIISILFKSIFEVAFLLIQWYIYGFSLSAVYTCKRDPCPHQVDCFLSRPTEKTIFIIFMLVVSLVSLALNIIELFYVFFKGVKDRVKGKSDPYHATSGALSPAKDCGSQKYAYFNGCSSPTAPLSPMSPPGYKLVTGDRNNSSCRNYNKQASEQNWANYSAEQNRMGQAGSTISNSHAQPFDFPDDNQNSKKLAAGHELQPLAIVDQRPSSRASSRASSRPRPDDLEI

Cx43 hemichannels [2] = biological target: T1, Cx43 hemichannels (Mus musculus, UniProt P23242); test: Glutamate-triggered ATP release in cultured cortical astrocytes; assay type: cell-based, mouse (OF1); design: endogenous in cells; host or cells: primary cortical astrocytes from newborn OF1 mice; conditions: primary cortical astrocyte cultures; glutamate 100 μM, 15 min; Gap19 30 min pre-incubation; n = 6 independent experiments; read-out: IC50 / half-maximal effect concentration for glutamate-triggered ATP release
T1 sequence (P23242 whole entry): as the sequence (P17302 whole entry, looked up) above, with D124E, I164V, K243R, S251T, A253P, A257S, Q263P, N341S, S344A, L347V counted along it
Description: (§1) Primary astrocyte cultures were prepared from the cortex of newborn (1–2 days) OF1 mice as described previously (Meme et al., [2006]). Briefly, cells were seeded into 100-mm diameter plastic dishes (Nunc, Roskilde, Denmark) at the density of 3 × 10^6 cells/dish in DMEM (Sigma-Aldrich, St-Louis MO, USA), supplemented with penicillin (5 U/ml), streptomycin (5 μg/ml) (Invitrogen, Carlsbad, CA, USA) and 10% FCS (Hyclone, Logan, UT, USA). The medium was changed twice a week. When cells reached confluence, around 10 days in vitro (DIV), they were harvested with trypsin-EDTA (Invitrogen). […]
(§2) The data are expressed as mean ± s.e.m., with “n” denoting the number of independent experiments. […] In experiments where the effects of different treatments were assessed on normalized data, non-parametric ANOVA Kruskal-Wallis tests were performed. […] Unless stated otherwise, significance as compared to control condition based on the raw data (before normalization) was assessed by two-tailed Wilcoxon signed-ranked tests. […]
While in vivo astrocytes express two major Cxs, Cx43 and Cx30, astrocytes in primary culture offer the advantage that only one of them is expressed, namely Cx43 (Giaume et al., [1991a]). Indeed, Cx30 is detected in astrocytes only either after 10–11 weeks of solo-culture (Kunzelmann et al., [1999]) or in 3 week-old astrocytes after 1 week of co-culture with neurons (Koulakoff et al., [2008]). […]

Cx43 hemichannels [3] = biological target: T1, Cx43 hemichannels; test: Etd+ uptake in cultured astrocytes treated with TNF-α/IL-1β; assay type: cell-based, mouse (OF1); design: endogenous in cells; host or cells: primary cortical astrocytes from newborn OF1 mice; conditions: astrocyte cultures, "in the 250 μM range", read-out: Half-maximal effect concentration, hemichannels opened with TNF-α/IL-1β
Description: as §1
Hemichannel activity in cultured astrocytes was induced either by treatment with two pro-inflammatory cytokines, TNF-α and IL-1β (Retamal et al., [2007]) or by exposing the cells to a Ca^2+-free solution (Stout et al., [2002]). […] Captured images of Etd^+ uptake were analyzed with the Image J program (NIH software).
as §2

Cx43 hemichannels [4] = biological target: T1, Cx43 hemichannels; test: Etd+ uptake in astrocytes of acute hippocampal slices, Ca2+-free solution; assay type: cell-based, mouse (GFAP-eGFP); design: performing the Etd^+ uptake assay in acute hippocampal brain slices from GFAP-eGFP transgenic mice; from tissue; host or cells: acute hippocampal slices of GFAP-eGFP mice (GFP-positive astrocytes); conditions: zero extracellular Ca2+, "in the 250 μM range", read-out: Half-maximal effect concentration, zero extracellular Ca2+ in brain slices
Description: GFAP-eGFP mice (Nolte et al., [2001]) were decapitated and their brains were rapidly removed. Hippocampi were dissected and placed in ice-cold artificial cerebrospinal fluid (ACSF) equilibrated with 95% O2–5% CO2. Transverse hippocampal slices (300–400 μm thick) were cut on a vibroslicer (Leica VT 1000S, Wetzlar, Germany) and transferred to a holding chamber where they rested on a nylon mesh, submerged in oxygenated ACSF at room temperature for a stabilization period of 45 min before recodings. The ACSF solution contained in mM: NaCl 134; KCl 2.8; NaHCO3 29; NaH2PO4 1.1; glucose 12; MgSO4 1.5; CaCl2 2.5.
In slices derived from GFAP-eGFP mice, astrocytes were identified by GFP fluorescence and hemichannel activity was investigated. […] In order to be sure that we were quantifying Etd^+ uptake in astrocytes, in this study hemichannel activity was only considered in GFP-positive cells. […] Fluorescence was quantified in arbitrary units (AU), Image J program (NIH software). Dye uptake intensity was evaluated as the difference (F—F0) between the fluorescence (F) from astrocytes (20—30 cells per slice) and the background fluorescence (F0) measured in the same field where no labeled cells were detected. […]
The data are expressed as mean ± s.e.m., with “n” denoting the number of independent experiments. […]

[5] = Brain TAT immunostaining 1 h after intra-carotid injection; assay type: in vivo, mouse (C57Bl6)
Description: Two different approaches were used for in vivo delivery of TAT-Gap19. For acute experiments, 4 months old C57Bl6 male mice were subjected to intra-carotid injection of 45 mg/kg TAT-Gap19 (GenScript, Pistcataway, NJ, US) dissolved in saline. After 1 h the mice were deeply anesthetized with sodium pentobarbital (120 mg/kg intraperitoneally) and were transcardially perfused with cold ice phosphate-buffered saline (PBS) followed by perfusion with 10% formalin (Sigma-Aldrich, Oakville, Canada). Brains were removed and stored in 10% formalin and the next day were cryoprotected in 30% sucrose in PBS solution. Cortical brain sections, 10 μm thick, were collected and mounted sequentially on glass microscope slides. Immunohistochemistry was performed on the sections as previously described (Ozog et al., [2002]; Nakase et al., [2004]; Kozoriz et al., [2010]). Ten μm thick glass mounted sections were rehydrated in PBS and then blocked in PBS pH 7.4 containing 0.3% Triton-X-100 (TX100, Fisher Scientific) and 2% bovine serum albumin (BSA; Invitrogen, Canada) for 1 h, and incubated overnight in PBS containing 1.0% BSA, 0.3% TX100 and anti-TAT primary antibody (1/100 dilution; Cat # CB0888, Cell Applications, Inc., USA). The following day, the slices were washed with PBS (3 × 10 min) and subsequently incubated for 1 h with secondary antibody (anti-mouse IgG tagged with Alexa 488; Molecular Probes, USA) in PBS containing 1% BSA, 0.3% TX100. Slices were then rinsed 3 times for 10 min with PBS and mounted with ProLong Gold antifade reagent with DAPI. Images were obtained using the same exposure times on a Ziess Axiophot Epifluorescent microscope, Zeiss Canada, Toronto).

Chain of Connexin43 C-terminal tail (P17302 232-382): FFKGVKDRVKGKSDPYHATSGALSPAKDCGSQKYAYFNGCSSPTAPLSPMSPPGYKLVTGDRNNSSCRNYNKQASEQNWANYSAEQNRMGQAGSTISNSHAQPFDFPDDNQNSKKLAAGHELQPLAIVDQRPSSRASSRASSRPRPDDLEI

For CC1(C)[C@@H](OC(=O)CCC(=O)O)CC[C@]2(C)[C@H]3C(=O)C=C4[C@@H]5C[C@@](C)(C(=O)O)CC[C@]5(C)CC[C@@]4(C)[C@]3(C)CC[C@@H]12 [carbenoxolone], the “Discrimination between gap junctions and hemichannels” value (hemichannels; ref not printed at this statement (nearby: Takeuchi et al., 2011)) is listed as “poorly discriminate between gap junctions and hemichannels” and the “Block of hemichannel activity induced by calcium-free solution” value [1] is listed as “can be inhibited by carbenoxolone in hippocampal slices; also recorded: blocks hemichannel activity induced by a calcium free solution”.

In the case of [Gd+3] [gadolinium (Gd^3+), gadolinium], the Hemichannel-only effect (hemichannels) is listed as “supposed to affect only hemichannels”.

In the case of [La+3] [lanthanum (La^3+), lanthanum], the Hemichannel-only effect (hemichannels) is listed as “supposed to affect only hemichannels”.

For “Connexin43 C-terminal tail (from UniProt P17302)”, the pKd (Gap19) is given as 5.60.

Compound KQIEIKKFK [Gap19, KQIEIKKFK] has a pIC50 (Cx43 hemichannels [2]) of 3.85, a pIC50 (Cx43 hemichannels [3]) of ~3.60 and a pIC50 (Cx43 hemichannels [4]) of ~3.60.

In the case of “YGRKKRRQRRRKQIEIKKFK [TAT-Gap19, YGRKKRRQRRR-KQIEIKKFK]”, the “TAT immunoreactivity in brain, 1 h after carotid injection” value ([5]; 45 mg/kg intra-carotid, 4 months old male mice, 1 h, anti-TAT antibody, compared with vehicle (PBS)) was “readily detected throughout the brain; also recorded: clear TAT immunoreactivity”, the “TAT peptide in GFAP-positive astrocytes (double labeling anti-TAT/anti-GFAP)” value ([5]; 45 mg/kg intra-carotid, 1 h, cortex) was “some GFAP-positive astrocytes (white arrows) have taken up the TAT peptide; also recorded: reaches GFAP-positive astrocytes, however, several TAT-positive cells are apparently not GFAP-positive” and the Blood-brain barrier crossing ([5]; in vivo injection, immunostaining for TAT moiety, intra-carotid and i.v. experiments taken together) was “traverses the blood-brain barrier and is retained in the cells; also recorded: can successfully cross the blood-brain barrier”.

From PMC4204617 (Frontiers in Cellular Neuroscience, 2014)
